Starred links: 1 amine or outer side, 2 acyl side, 3 side chain; linkers in the order of their positions; H or OH if unused. Positions of bridges follow the written chain, without caps; N, C: chain ends. Non-standard residues stand in square brackets, D forms with d. Residues, ends and D or L forms follow the SMILES beside them. *: point of attachment. hPhe(3-Cl-4-CF3) = N[C@@H](CCc1ccc(C(F)(F)F)c(Cl)c1)C(=O)O; NMePhe(4-CF3) = CN[C@@H](Cc1ccc(C(F)(F)F)cc1)C(=O)O; hPhe(4-CF3) = N[C@@H](CCc1ccc(C(F)(F)F)cc1)C(=O)O; NMeAbu(4,4,4-F3) = CN[C@@H](CC(F)(F)F)C(=O)O; NMePhe(4-Cl) = CN[C@@H](Cc1ccc(Cl)cc1)C(=O)O; NMePhe(4-Me) = CN[C@@H](Cc1ccc(C)cc1)C(=O)O; NMedβ3hAla = C[C@H](CC(=O)[*:2])N(C)[*:1]; Phe(3-CN) = N#Cc1cccc(C[C@H](N)C(=O)O)c1; NMeGly(cPent) = CN[C@H](C(=O)O)C1CCCC1; Phe(3-I) = N[C@@H](Cc1cccc(I)c1)C(=O)O; Pro(4,4-F2) = O=C(O)[C@@H]1CC(F)(F)CN1; NMeAla(cPr) = CN[C@@H](CC1CC1)C(=O)O; NMeCha = CN[C@@H](CC1CCCCC1)C(=O)O; X2 = C=CC[C@](C)(N[*:1])C(=O)[*:2]; NMeChg = CN[C@H](C(=O)O)C1CCCCC1; NMeF = CN[C@@H](Cc1ccccc1)C(=O)O; N(CH2CH2)2CF2 = FC1(F)CCN(*)CC1; NMeβAla = CN(CCC(=O)[*:2])[*:1]; NMeD = CN[C@@H](CC(=O)O)C(=O)O; NMeL = CN[C@@H](CC(C)C)C(=O)O; NMeV = CN[C@H](C(=O)O)C(C)C; d(β3hA) = C[C@@H](N)CC(=O)O; NMeS = CN[C@@H](CO)C(=O)O; NMeA = CN[C@@H](C)C(=O)O; NMeAib = CNC(C)(C)C(=O)O; Piperidide = C1CCN(*)CC1; Pyrrolidide = C1CCN(*)C1; Ac5c = NC1(C(=O)O)CCCC1; Ac4c = NC1(C(=O)O)CCC1; CH2CMe2OH = CC(C)(O)C*; Sar = CNCC(=O)O
Target: T1, Kras and SOS1 (biotin-tagged human Kras loaded with GDP, His-tagged human SOS1) (Homo sapiens, UniProt P01116, G12D)
T1 construct: made in house; host or cells: E. coli (stated for Kras only)
T1 sequence (P01116 1-188 isoform P01116-2 G12D): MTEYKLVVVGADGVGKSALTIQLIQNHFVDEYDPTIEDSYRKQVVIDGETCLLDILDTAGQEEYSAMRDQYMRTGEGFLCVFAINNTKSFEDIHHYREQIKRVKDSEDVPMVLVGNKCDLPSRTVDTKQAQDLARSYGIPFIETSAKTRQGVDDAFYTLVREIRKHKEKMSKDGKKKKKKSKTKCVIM
Assay: Protein-protein interaction inhibition between Kras and SOS1 (KrasGl2D-SOS PPI) using AlphaScreen
Type: binding
Details: AlphaScreen; biotin-tagged human Kras loaded with GDP, His-tagged human SOS1; read-out: KRAS G12D-SOS PPI IC50
Summary of the method: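 Energy transfer from nickel-chelate donor beads bound to His-SOS1 to streptavidin acceptor beads bound to biotin-Kras, expressed in E. coli and loaded with GDP after purification, was monitored. Donors were excited at 680 nm; singlet oxygen reaching acceptors gave emission read at 520-620 nm.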

Row | SMILES | IC50 [nM]
1 | CC[C@H](C)[C@@H]1NC(=O)[C@H](CC(C)C)N(C)C(=O)C[C@@H](C)N(C)C(=O)[C@H](C2CCCCC2)N(C)C(=O)C2(CCC2)NC(=O)[C@@H]2CC(F)(F)CN2C(=O)[C@H](CCc2ccc(C(F)(F)F)c(Cl)c2)NC(=O)CN(C)C(=O)[C@H](CC2CCCCC2)N(C)C(=O)CN(C)C(=O)CN(C)C1=O [Compound 241] (cyclo([Ac4c][NMeChg][NMedβ3hAla][NMeL]I[Sar][Sar][NMeCha][Sar][hPhe(3-Cl-4-CF3)][Pro(4,4-F2)])) | 18
2 | C=CC[C@]1(C)NC(=O)[C@@H]2CCCN2C(=O)[C@H](CCc2ccc(C(F)(F)F)c(Cl)c2)NC(=O)CN(C)C(=O)[C@H](CC2CCCCC2)N(C)C(=O)CN(C)C(=O)CN(C)C(=O)[C@H]([C@@H](C)CC)NC(=O)[C@H](CC(C)C)N(C)C(=O)C[C@@H](C)NC(=O)[C@H](C(C)C)N(C)C1=O [Compound 242] (cyclo(I[Sar][Sar][NMeCha][Sar][hPhe(3-Cl-4-CF3)]P[X2][NMeV][d(β3hA)][NMeL])) | 27
3 | CC[C@H](C)[C@@H]1NC(=O)CCN(C)C(=O)[C@H](COCC(C)(C)O)N(C)C(=O)[C@H](C2CCCC2)N(C)C(=O)C2(CCCC2)NC(=O)[C@@H]2CCCN2C(=O)[C@H](CCc2ccc(C(F)(F)F)c(Cl)c2)NC(=O)CN(C)C(=O)[C@H](CC2CCCCC2)N(C)C(=O)CN(C)C(=O)CN(C)C1=O [Compound 244] (cyclo([Ac5c][NMeGly(cPent)][NMeS](CH2CMe2OH)[NMeβAla]I[Sar][Sar][NMeCha][Sar][hPhe(3-Cl-4-CF3)]P)) | 140
4 | CC[C@H](C)[C@@H]1NC(=O)[C@H](CC(F)(F)F)N(C)C(=O)C[C@@H](C(=O)N2CCCC2)N(C)C(=O)[C@H](C2CCCCC2)N(C)C(=O)C2(CCCC2)NC(=O)[C@@H]2CCCN2C(=O)[C@H](CCc2ccc(C(F)(F)F)c(Cl)c2)NC(=O)CN(C)C(=O)[C@H](Cc2ccc(C(F)(F)F)cc2)N(C)C(=O)CN(C)C(=O)CN(C)C1=O [Compound 245, (3S,9S,18S,21S,25S,28S,34S)-3-[2-[3-chloro-4-(trifluoromethyl)phenyl]ethyl]-28-cyclohexyl-7,10,13,16,22,26,29-heptamethyl-18-[(1S)-1-methylpropyl]-25-(pyrrolidine-1-carbonyl)-21-(2,2,2-trifluoroethyl)-9-[[4-(trifluoromethyl)phenyl]methyl]spiro[1,4,7,10,13,16,19,22,26,29,32-undecazabicyclo[32.3.0]heptatriacontane-31,1′-cyclopentane]-2,5,8,11,14,17,20,23,27,30,33-undecone] ([NMeAbu(4,4,4-F3)]I[Sar][Sar][NMePhe(4-CF3)][Sar][hPhe(3-Cl-4-CF3)]P[Ac5c][NMeChg][NMeD]-Pyrrolidide; lactam N-11) | 0.37
5 | CC[C@H](C)[C@@H]1NC(=O)[C@H](CC(C)C)N(C)C(=O)C[C@@H](C(=O)N2CCCCC2)N(C)C(=O)[C@H](CC(C)C)NC(=O)C(C)(C)N(C)C(=O)[C@H](Cc2ccc(OC)cc2)NC(=O)[C@H](Cc2cccc(I)c2)NC(=O)CN(C)C(=O)[C@H](Cc2ccc(C)cc2)N(C)C(=O)CN(C)C(=O)CN(C)C1=O [Compound 247] ([NMeL]I[Sar][Sar][NMePhe(4-Me)][Sar][Phe(3-I)]Y(Me)[NMeAib]L[NMeD]-Piperidide; lactam N-11) | 7
6 | CC[C@H](C)[C@@H]1NC(=O)[C@H](CC2CC2)N(C)C(=O)C[C@@H](C)NC(=O)[C@H](C(C)C)N(C)C(=O)C2(CCCC2)NC(=O)[C@@H]2CCCN2C(=O)[C@H](CCc2ccc(C(F)(F)F)c(Cl)c2)NC(=O)CN(C)C(=O)[C@H](CC2CCCCC2)N(C)C(=O)CN(C)C(=O)CN(C)C1=O [Compound 248] (cyclo([Ac5c][NMeV][d(β3hA)][NMeAla(cPr)]I[Sar][Sar][NMeCha][Sar][hPhe(3-Cl-4-CF3)]P)) | 31
7 | CC[C@H](C)[C@@H]1NC(=O)[C@H](CC(C)C)N(C)C(=O)C[C@@H](C(=O)N2CCCCC2)N(C)C(=O)[C@H](C(C)C)N(C)C(=O)C2(CCC2)NC(=O)[C@H](CC(=O)N2CCC(F)(F)CC2)N(C)C(=O)[C@H](CCc2ccc(C(F)(F)F)c(Cl)c2)NC(=O)CN(C)C(=O)[C@H](CC2CCCCC2)N(C)C(=O)CN(C)C(=O)CN(C)C1=O [Compound 251] ([NMeL]I[Sar][Sar][NMeCha][Sar][hPhe(3-Cl-4-CF3)][NMeD](N(CH2CH2)2CF2)[Ac4c][NMeV][NMeD]-Piperidide; lactam N-11) | 3.8
8 | CC[C@H](C)[C@@H]1NC(=O)[C@H](C)N(C)C(=O)C[C@@H](C(=O)N2CCCCC2)NC(=O)[C@H](CC(C)C)N(C)C(=O)[C@H](Cc2ccccc2)N(C)C(=O)[C@H](CC(C)C)NC(=O)[C@H](Cc2cccc(C#N)c2)NC(=O)CN(C)C(=O)[C@H](Cc2ccc(Cl)cc2)N(C)C(=O)CN(C)C(=O)CN(C)C1=O [Compound 252] ([NMeA]I[Sar][Sar][NMePhe(4-Cl)][Sar][Phe(3-CN)]L[NMeF][NMeL]D-Piperidide; lactam N-11) | 55
9 | CC[C@H](C)[C@@H]1NC(=O)[C@H](CC(C)C)N(C)C(=O)C[C@@H](C)NC(=O)[C@H](CC(C)C)N(C)C(=O)C2(CCCC2)NC(=O)[C@@H]2CCCN2C(=O)[C@H](CCc2ccc(C(F)(F)F)cc2)NC(=O)CN(C)C(=O)[C@H](Cc2ccc(Cl)cc2)N(C)C(=O)CN(C)C(=O)CN(C)C1=O [Compound 258] (cyclo([Ac5c][NMeL][d(β3hA)][NMeL]I[Sar][Sar][NMePhe(4-Cl)][Sar][hPhe(4-CF3)]P)) | 36

From US12371454B2, “Cyclic peptide compound having Kras inhibitory action” (priority 2019, dated 2025)
